A value given as a limit tells only on which side of the number the result lay.

Among the data in patent US11485742B2, “2-azaspiro[3.4]octane derivatives as M4 agonists” (NOVARTIS AG, priority 2019, dated 2022) are EC50 and Emax values, retold here.

Assay [1] addresses T1, human cloned CHRM2 receptor (Homo sapiens, UniProt P08172).
T1 construct: expressed in transfected cells; host or cells: CHO-K1 (M2_CHO)
T1 sequence (P08172 1-466): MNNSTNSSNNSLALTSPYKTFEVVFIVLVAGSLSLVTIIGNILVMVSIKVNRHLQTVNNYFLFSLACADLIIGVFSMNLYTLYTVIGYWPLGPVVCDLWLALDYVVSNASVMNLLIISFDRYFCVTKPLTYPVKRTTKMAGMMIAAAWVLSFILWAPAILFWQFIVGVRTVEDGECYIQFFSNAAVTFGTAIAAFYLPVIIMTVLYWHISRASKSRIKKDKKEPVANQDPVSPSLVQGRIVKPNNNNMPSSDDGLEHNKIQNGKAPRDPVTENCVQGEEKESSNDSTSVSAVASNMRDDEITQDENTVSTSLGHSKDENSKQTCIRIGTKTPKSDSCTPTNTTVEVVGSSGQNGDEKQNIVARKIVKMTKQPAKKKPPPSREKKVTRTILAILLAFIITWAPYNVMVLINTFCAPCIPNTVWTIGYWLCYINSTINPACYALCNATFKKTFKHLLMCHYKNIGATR
The assay can be described thus: CHRM2 Ca++ Flux Assay (M2_CHO cells, agonist mode). It counts as cell-based. As to conditions: M2 CHO cells; for EC50: agonist mode, geometric mean if tested more than once, read-out: M2 FDSS EC50; for Emax: Percent Activity (PA) measured to EC100 of Carbachol, read-out: M2 FDSS PA %. The method, boiled down: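 Agonist activity was expressed as percent of the carbachol EC100 response, fitted by four-parameter regression on triplicate wells, with geometric means across repeat runs. Calcium traces over 3 minutes came from dye-loaded M2_CHO cells (12K/well) pre-incubated 60 min in Ca/Mg-free HBSS with 20 mM HEPES, 2.5 mM probenecid and 20 μM ATP.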

Assay [2] deals with T2, Cloned human M1 receptor (CHRM1) (Homo sapiens, UniProt P11229).
T2 construct: expressed in transfected cells; host or cells: HEK293
T2 sequence (P11229 1-460): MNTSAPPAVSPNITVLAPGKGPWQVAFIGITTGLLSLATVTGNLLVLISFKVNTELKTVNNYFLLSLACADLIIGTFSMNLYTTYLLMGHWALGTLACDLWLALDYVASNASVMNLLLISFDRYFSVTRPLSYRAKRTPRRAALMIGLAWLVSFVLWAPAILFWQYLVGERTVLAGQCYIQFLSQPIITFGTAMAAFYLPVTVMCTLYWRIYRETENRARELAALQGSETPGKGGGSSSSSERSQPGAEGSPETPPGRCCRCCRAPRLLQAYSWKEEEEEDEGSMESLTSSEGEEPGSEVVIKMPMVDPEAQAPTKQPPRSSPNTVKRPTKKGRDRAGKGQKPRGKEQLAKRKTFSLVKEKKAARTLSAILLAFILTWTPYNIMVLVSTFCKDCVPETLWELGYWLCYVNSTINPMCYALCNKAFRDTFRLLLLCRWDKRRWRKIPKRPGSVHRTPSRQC
Nature of the assay: CHRM1 Ca++ Flux Assay (HEK293 M1 cells, agonist mode). The format is cell-based. Particulars: for Emax: Percent Activity (PA), read-out: M1 FDSS PA %; for EC50: geometric mean if tested more than once, read-out: M1 FDSS EC50. The method, boiled down:
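In agonist mode, compound-induced intracellular Ca++ mobilization was recorded for 3 min by fluorescent imager. The cells were HEK293 stably expressing cloned human CHRM1, in Ca/Mg-free HBSS with 20 mM HEPES. Triplicate 11-point dose-responses were fitted by four-parameter regression and normalized to the carbachol EC100 response.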

Take `CC(C)(O)CCOc1cc(F)ccc1C1CCN([C@@H]2COC3(C2)CN(c2nncs2)C3)CC1` [Example 5V, (S)-4-(2-(1-(2-(1,3,4-thiadiazol-2-yl)-5-oxa-2-azaspiro[3.4]octan-7-yl)piperidin-4-yl)-5-fluorophenoxy)-2-methylbutan-2-ol]: in assay [1], the EC50 is greater than 25000 nM and the Emax was determined as 0%. In assay [2], the Emax was 79% and the EC50 turned out to be 786 nM.
With `c1ccc(C2CCN([C@@H]3COC4(C3)CN(c3nnco3)C4)CC2)c(OC2COC2)c1` [Example 1P, (S)-2-(1,3,4-oxadiazol-2-yl)-7-(4-(2-(oxetan-3-yloxy)phenyl)piperidin-1-yl)-5-oxa-2-azaspiro[3.4]octane], the figures for the EC50 in assay [1] and in assay [2] were 1090 nM and 439 nM, respectively. For the same compound, the Emax in assay [1] worked out at 51%; in assay [2], 76%.
In the case of `CC(C)(O)COc1ccc(F)cc1C1CCN([C@@H]2COC3(C2)CN(c2nnco2)C3)CC1` [Example 1U, (S)-1-(2-(1-(2-(1,3,4-oxadiazol-2-yl)-5-oxa-2-azaspiro[3.4]octan-7-yl)piperidin-4-yl)-4-fluorophenoxy)-2-methylpropan-2-ol], in assay [1], the EC50 was greater than 25000 nM and the Emax stood at 0%. In addition, in assay [2], the Emax worked out at 75% and the EC50 came to 961 nM.
For `Fc1ccc(OC2COC2)c(C2CCN([C@@H]3COC4(C3)CN(c3nnco3)C4)CC2)c1` [Example 1A, (S)-7-(4-(5-fluoro-2-(oxetan-3-yloxy)phenyl)piperidin-1-yl)-2-(1,3,4-oxadiazol-2-yl)-5-oxa-2-azaspiro[3.4]octane], the EC50 came to 536 nM in assay [1] and 210 nM in assay [2]. In addition, the results for the Emax in assay [1] and in assay [2] were 32% and 92%, respectively.
On to `CC(C)(O)CCOc1ccc(F)cc1C1CCN([C@@H]2COC3(C2)CN(c2nnco2)C3)CC1` [Example 1N, (S)-4-(2-(1-(2-(1,3,4-oxadiazol-2-yl)-5-oxa-2-azaspiro[3.4]octan-7-yl)piperidin-4-yl)-4-fluorophenoxy)-2-methylbutan-2-ol], for which the EC50 in assay [1] is greater than 25000 nM; in assay [2], 376 nM. In addition, the Emax was 0% in assay [1] and 82% in assay [2].
`Fc1ccc(OC2CC3(COC3)C2)c(C2CCN([C@H]3COC4(C3)CN(c3nnco3)C4)CC2)c1` [Example 7A, (R)-7-(4-(2-((2-oxaspiro[3.3]heptan-6-yl)oxy)-5-fluorophenyl)piperidin-1-yl)-2-(1,3,4-oxadiazol-2-yl)-5-oxa-2-azaspiro[3.4]octane]: in assay [1], the EC50 was greater than 25000 nM and the Emax was 0%. In addition, in assay [2], the Emax stood at 0% and the EC50 is greater than 25000 nM.
Take `CC(C)(O)COc1ccccc1C1CCN([C@@H]2COC3(C2)CN(c2ncns2)C3)CC1` [Example 5Y, (S)-1-(2-(1-(2-(1,2,4-thiadiazol-5-yl)-5-oxa-2-azaspiro[3.4]octan-7-yl)piperidin-4-yl)phenoxy)-2-methylpropan-2-ol]: in assay [1], the EC50 is greater than 25000 nM and the Emax came out at 0%. Moreover, in assay [2], the Emax stood at 47% and the EC50 was found to be 1990 nM.
As for `CCC1(COc2ccc(F)cc2C2CCN([C@@H]3COC4(C3)CN(c3nnco3)C4)CC2)COC1` [Example 2P, (S)-7-(4-(2-((3-ethyloxetan-3-yl)methoxy)-5-fluorophenyl)piperidin-1-yl)-2-(1,3,4-oxadiazol-2-yl)-5-oxa-2-azaspiro[3.4]octane], in assay [1], the EC50 was determined as 1070 nM and the Emax came to 36%. Besides, in assay [2], the Emax was 71% and the EC50 was 2080 nM.
`Fc1ccc(OC2COCOC2)c(C2CCN([C@@H]3COC4(C3)CN(c3nnco3)C4)CC2)c1` [Example 1M, (S)-7-(4-(2-((1,3-dioxan-5-yl)oxy)-5-fluorophenyl)piperidin-1-yl)-2-(1,3,4-oxadiazol-2-yl)-5-oxa-2-azaspiro[3.4]octane]: in assay [1], the EC50 was determined as 752 nM and the Emax amounted to 23%. Also, in assay [2], the Emax is 89% and the EC50 is 1370 nM.
As for `CC1(COc2ccc(F)cc2C2CCN([C@@H]3COC4(C3)CN(c3nnco3)C4)CC2)COC1` [Example 2K, (S)-7-(4-(5-fluoro-2-((3-methyloxetan-3-yl)methoxy)phenyl)piperidin-1-yl)-2-(1,3,4-oxadiazol-2-yl)-5-oxa-2-azaspiro[3.4]octane], the 50% effective concentration (EC50) in assay [1] came to 498 nM; in assay [2], 1360 nM. For the same compound, the Emax came to 47% in assay [1] and 97% in assay [2].
For the compound `Fc1ccc(OCc2ncccn2)c(C2CCN([C@@H]3COC4(C3)CN(c3nnco3)C4)CC2)c1` [Example 2I, (S)-7-(4-(5-fluoro-2-(pyrimidin-2-ylmethoxy)phenyl)piperidin-1-yl)-2-(1,3,4-oxadiazol-2-yl)-5-oxa-2-azaspiro[3.4]octane], in assay [1], the EC50 came to 109 nM and the Emax was 35%. In assay [2], the Emax turned out to be 97% and the EC50 was found to be 98 nM.
On the same counts, the results for `c1ccc(C2CCN([C@@H]3COC4(C3)CN(c3nnco3)C4)CC2)c(-c2cncnc2)c1` [Example 1W, (S)-2-(1,3,4-oxadiazol-2-yl)-7-(4-(2-(pyrimidin-5-yl)phenyl)piperidin-1-yl)-5-oxa-2-azaspiro[3.4]octane] are 527 nM, 68%, 94% and 335 nM.
Regarding `Fc1ccc(OCC2CCOCC2)c(C2CCN([C@@H]3COC4(C3)CN(c3nnco3)C4)CC2)c1` [Example 1J, (S)-7-(4-(5-fluoro-2-((tetrahydro-2H-pyran-4-yl)methoxy)phenyl)piperidin-1-yl)-2-(1,3,4-oxadiazol-2-yl)-5-oxa-2-azaspiro[3.4]octane], the values for the EC50 in assay [1] and in assay [2] were 874 nM and 4090 nM, respectively. Also, the Emax in assay [1] is 35%; in assay [2], 73%.
Take `COc1ccc(F)cc1C1CCN([C@@H]2COC3(C2)CN(c2nnco2)C3)CC1` [Example 1V, (S)-7-(4-(5-fluoro-2-methoxyphenyl)piperidin-1-yl)-2-(1,3,4-oxadiazol-2-yl)-5-oxa-2-azaspiro[3.4]octane]: in assay [1], the EC50 was 598 nM and the Emax was 35%. Moreover, in assay [2], the Emax turned out to be 76% and the EC50 turned out to be 663 nM.
As to `COC(C)(C)CCOc1ccc(F)cc1C1CCN([C@@H]2COC3(C2)CN(c2nnco2)C3)CC1` [Example 1K, (S)-7-(4-(5-fluoro-2-(3-methoxy-3-methylbutoxy)phenyl)piperidin-1-yl)-2-(1,3,4-oxadiazol-2-yl)-5-oxa-2-azaspiro[3.4]octane], the EC50 in assay [1] was greater than 25000 nM; in assay [2], 1590 nM. The Emax was 0% in assay [1] and 58% in assay [2].
Turning to `CC(C)(O)CCOc1cc(F)ccc1C1CCN([C@@H]2COC3(C2)CN(c2nnco2)C3)CC1` [Example 1T, (S)-4-(2-(1-(2-(1,3,4-oxadiazol-2-yl)-5-oxa-2-azaspiro[3.4]octan-7-yl)piperidin-4-yl)-5-fluorophenoxy)-2-methylbutan-2-ol], in assay [1], the EC50 was greater than 25000 nM and the Emax is 0%. Besides, in assay [2], the Emax is 74% and the EC50 came out at 640 nM.
Turning to `Fc1ccc(OCC2CC3(COC3)C2)c(C2CCN([C@@H]3COC4(C3)CN(c3nnco3)C4)CC2)c1` [Example 2S, (S)-7-(4-(2-((2-oxaspiro[3.3]heptan-6-yl)methoxy)-5-fluorophenyl)piperidin-1-yl)-2-(1,3,4-oxadiazol-2-yl)-5-oxa-2-azaspiro[3.4]octane], in assay [1], the EC50 amounted to 2180 nM and the Emax stood at 29%. In addition, in assay [2], the Emax stood at 53% and the EC50 is 5410 nM.
For the compound `c1ccc(C2CCN([C@@H]3COC4(C3)CN(c3nnco3)C4)CC2)c(-c2ncco2)c1` [Example 1X, (S)-2-(1,3,4-oxadiazol-2-yl)-7-(4-(2-(oxazol-2-yl)phenyl)piperidin-1-yl)-5-oxa-2-azaspiro[3.4]octane], in assay [1], the EC50 worked out at 2480 nM and the Emax amounted to 25%. In assay [2], the Emax was 99% and the half-maximal effective concentration (EC50) came to 1230 nM.

The EC50 is the concentration that produces a half-maximal response.
